Reference: patent US20220226357A1, “METHODS FOR TREATING NEURODEGENERATIVE DISORDERS” (THOMAS JEFFERSON UNIVERSITY, priority 2019, published 2022)
“Also recorded” adds a separate entry of the source. Marks after values point to notes of the source that are not given here.

Experiments:
[1] = system: AAV-A53T α-synuclein rat model; experiment: Cylinder test of spontaneous forelimb use; assay type: in vivo
Procedure: (§1) Institutional Animal Care and Use Committee and conducted in accordance with the National Institutes of Health Guide for the Care and Use of Laboratory Animals. Adult male Sprague-Dawley rats (Envigo), 250 to 300 g at the time of surgery, were housed three per cage with ad libitum access to food and water during a 12-hour light/dark cycle. All surgeries were performed under general anesthesia using a mixture of ketamine (100 mg/kg, i.p.) and xylazine (10 mg/kg, i.p.). Once animals were anesthetized, the head was shaved and surgically prepped with Betadine solution and alcohol before being placed in a Kopf stereotaxic frame with the incisor bar set at approximately 3.5 mm below horizontal zero to achieve a flat skull position. The skin on the top of the skull was cut along the midline and retracted. […] Following a 5 minute wait period after completion of the injection, the needle was slowly withdrawn, the skin wound was closed, and post-surgery analgesia (meloxicam 1 mg/kg) was administered. Some rats were randomly assigned to receive daily GM1 ganglioside (porcine brain derived GM1, 30 mg/kg, i.p., Qilu Pharmaceutical Co., Ltd.) or similar volume saline injections beginning 24 hours after AAV-A53T-synuclein surgery and lasting for 6 weeks (early start group). Other animals were randomly assigned to receive daily GM1 ganglioside (porcine brain derived GM1, 30 mg/kg, i.p., Qilu Pharmaceutical Co.) or similar volume saline injections beginning 3 weeks after AAV-A53T-synuclein surgery and lasting for 5 weeks (delayed start group). […] At the conclusion of the study, animals were euthanized, fresh brains were rapidly removed, and two to three striatal samples from both sides were dissected and immediately frozen for later analyses. The remainder of the brain (including the striatum beginning at the level of the decussation of the anterior commissure) was submersion fixed in 4% paraformaldehyde.
Forelimb use during explorative activity was analyzed using the cylinder test. The test apparatus consisted of a clear Plexiglass cylinder of approximately 33 cm diameter and 50 cm height placed in a dimly lit room in front of a mirror in order to visualize limb use from all angles. Each session was videotaped for later analysis by an observer blind to the animal's experimental group. The paw contralateral to the side of the AAV-A53T-α-synuclein injection was marked prior to the start of each test session to definitively determine laterality on videotapes. The test was performed in the late afternoon prior to the onset of the dark cycle. At each test session, the animal was gently placed in the cylinder and movements were videotaped for 10 minutes. Forelimb use was assessed by scoring weight-bearing contacts on the cylinder wall with the ipsilateral, contralateral (relative to the AAV-A53T-α-synuclein-injected side), and both paws. Twenty observations of the paw placements on the cylinder wall were scored. Limb placement on the wall was scored only if it occurred after the animal returned to a resting position and reared again to touch the cylinder wall. Percent ipsilateral (ipsi) and contralateral (contra) paw touches were calculated as [(ipsi+1/2 both)/total #observations]*100 and [(contra+1/2 both)/total #observations]*100, respectively. The cylinder test was performed prior to surgery (baseline) and at 3 and 6 weeks after surgery for the immediate start GM1 groups and at 3 and 8 weeks after surgery for the delayed start GM1 groups.

[2] = system: AAV-A53T α-synuclein rat model; experiment: Stereological counting of TH+ and Nissl (cresyl violet) stained neurons in the SNc; assay type: in vivo
Procedure: as §1
Fixed tissue blocks were immersed in 30% sucrose for cryoprotection and sectioned frozen on a sliding microtome (30 μm section thickness for striatal sections; 40 μm section thickness for SN sections). Sections through the rostro-caudal extent of the SN were collected and every sixth section from the SN was processed for tyrosine hydroxylase (TH) immunohistochemistry to be used for stereological cell counting. Three striatal sections from approximately the level of the decussation of the anterior commissure in each case were processed for α-synuclein immunohistochemistry. For immunohistochemistry, sections were washed and permeabilized with PBS containing 0.2% Triton X-100. Endogenous peroxidase activity was quenched using 3% hydrogen peroxide in PBS containing 0.2% Triton X-100. Sections were then blocked in PBS/triton X-100 containing 10% normal goat serum and 2% BSA, followed by primary antibody incubation (TH (rabbit anti-TH, 1:2,000, Pel-Freez); α-synuclein (mouse anti-α-synuclein clone 211; 1:2000, Millipore) overnight at 4° C. The following day, sections were washed in PBS and incubated in biotinylated secondary antibody (goat-anti-rabbit 1:4000 for TH; goat-anti-mouse 1:2000 for α-synuclein 1:2000, VECTOR Laboratories), followed by additional washes and incubation in avidin biotin complex (VECTASTAIN Elite ABC system, VECTOR Laboratories). The reaction product was visualized with 3,3′-diaminobenzidine (DAB) (Immpact DAB, VECTOR Laboratories). Sections were then mounted, dehydrated, cleared and coverslipped. Sections stained for visualization of TH and to be used for stereological cell counting were counterstained with cresyl violet prior to coverslipping. Stereological estimates of the numbers of TH and cresyl violet-stained neurons in the SNc on both sides of the brain were obtained using StereoInvestigator software (MBF Bioscience) and an Olympus BX-60 microscope equipped with a Ludl motorized stage. Slides were coded and analyzed blindly. […]

[3] = system: differentiated SH-SY5Y cells; experiment: Uptake of GFP-α-Syn from conditioned medium; assay type: cell-based; conditions: 100 μM GM1, 24 hrs, conditioned medium of MN9D cells expressing GFP-tagged human WT α-Syn
Procedure: It has recently become appreciated that cell-to-cell transfer of α-Syn may be an important factor in the progression of synucelinopathies. Cell-to-cell transfer of α-Syn can occur as free α-Syn or as α-Sy-containing exosomes. Herein, a preliminary study was conducted to assess the extent to which GM1 can influence α-Syn release and/or uptake by neighboring cells. MIN9D dopaminergic cells stably expressing human WT α-Syn tagged with GFP were cultured to ˜90% confluency and shifted to serum free media for 48 hours to generate conditioned medium (CM), which was collected, spun at 1000 rpm for 10 minutes and filtered through a sterile […] filter. Normal SH-SY5Y cells (ATCC) were plated in 8 well chamber slides and differentiated in 10 μM retinoic acid for 7 days. Sterile CM or regular medium were used to replace 50% of the medium in each well. The cells were grown in the CM for 24 hours in presence or absence of 100 μM GM1, fixed in 4% paraformaldehyde for 10 minutes, and processed for enhanced visualization of GFP using GFP immunofluorescence.

[4] = AAV-A53T/Delayed GM1, injected side
[5] = AAV-A53T/Delayed GM1, non-injected side
[6] = AAV-A53T/Early GM1, injected side
[7] = AAV-A53T/Early GM1, non-injected side

Substance: GM1 ganglioside
- percent ipsilateral forelimb use ([1]; delayed start GM1 30 mg/kg/day i.p. from week 3 for 5 weeks, week 8): 61.5±2.7%
- percent ipsilateral limb use ([1]; delayed start GM1 group, baseline (prior to surgery and GM1)): 50.0±2.0%
- percent ipsilateral forelimb use ([1]; delayed start GM1 group, week 3, just prior to receiving GM1): 74.9±2.8%
- percent ipsilateral limb use ([1]; early start GM1 30 mg/kg/day i.p. from 24 h after AAV-A53T, 3 weeks, mean±SEM): 67.1±3.7%
- percent ipsilateral limb use ([1]; early start GM1 30 mg/kg/day i.p. from 24 h after AAV-A53T, 6 weeks, mean±SEM): 56.0±2.5%
- percent ipsilateral limb use ([1]; early start GM1 group, baseline (prior to surgery and GM1), mean±SEM): 50.1±1.8%
- Nissl+ Cells [2, 4]: 3335 ± 148^d
- TH+ Cells [2, 4]: 2814 ± 134^c
- Nissl+ Cells [2, 5]: 6113 ± 132
- TH+ Cells [2, 5]: 5685 ± 143
- Nissl+ Cells [2, 6]: 3557 ± 172^b
- TH+ Cells [2, 6]: 3144 ± 159^a
- Nissl+ Cells [2, 7]: 6074 ± 174
- TH+ Cells [2, 7]: 5601 ± 135
- loss of TH+ neurons compared to the contralateral side ([2]; delayed start GM1, 8 weeks): 50.6±2.1%
- loss of cresyl violet-stained neurons compared to the contralateral side ([2]; delayed start GM1, 8 weeks): 45.5±2.1%
- loss of TH+ neurons compared to the non-injected side ([2]; early start GM1, 6 weeks): 43.7±2.7%
- loss of cresyl violet-stained neurons compared to the contralateral side ([2]; early start GM1, 6 weeks): 41.9±2.5%
- uptake of GFP-α-Syn into SH-SY5Y cells [3]: reduced levels of GFP-α-Syn; also recorded: reduced uptake of GFP-α-Syn
